How the values were obtained:
B. subtilis 168 [1] = experiment: fitness (endpoint OD595 vs no drug) (fraction); higher = more growth
Summary of the method: (§1)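 With the first reading as background, OD595 was measured every 30 min for 14 h in 384-well plates kept at 37 °C and inoculated at OD595 0.01. TSB, LB Lennox or CY was the medium. Fitness is the optical density at the transition into stationary phase divided by the robust mean of no-drug control wells, with a cap of 1.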

S. pneumoniae D39V [2] = experiment: as above
Summary of the method: as §1

S. aureus DSM 20231 [3] = experiment: as above
Summary of the method: as §1

B. subtilis 168 [4] = experiment: Bliss interaction score (quartile over a dose matrix) (fitness difference); higher = more antagonism (negative = synergy)
Summary of the method: (§2)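 Each plate was normalised to the robust mean of its own no-drug wells, using OD595 at entry into stationary phase, with values capped at 1. This normalised growth is the fitness value. The Bliss score is the difference between observed and product-expected fitness, with single-drug fitness inferred from the combination data and quartiles taken over technical, biological and donor/recipient replicates.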

S. pneumoniae D39V [5] = experiment: as above
Summary of the method: as §2

S. aureus DSM 20231 [6] = experiment: as above
Summary of the method: as §2

S. aureus Newman = experiment: as above
Summary of the method: as §2
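Wherever Bliss interaction score (quartile over a dose matrix) is given: first quartile when negative (synergy) and third quartile when positive (antagonism).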

CCC[C@@H]1C[C@@H](C(=O)N[C@@H]([C@H]2O[C@H](SC)[C@H](O)[C@@H](O)[C@H]2O)[C@H](C)Cl)N(C)C1 [Clindamycin] + CC(=O)NC[C@H]1CN(c2ccc(N3CCOCC3)c(F)c2)C(=O)O1 [Linezolid]
one replicate
Settings | fitness
B. subtilis 168 [1], first compound 0.0039 µg/mL, partner 0.125 µg/mL | 0.943
B. subtilis 168 [1], first compound 0.0039 µg/mL, partner 0.25 µg/mL | 0.772
B. subtilis 168 [1], first compound 0.0039 µg/mL, partner 0.5 µg/mL | 0.448
B. subtilis 168 [1], first compound 0.0078 µg/mL, partner 0.125 µg/mL | 0.853
B. subtilis 168 [1], first compound 0.0078 µg/mL, partner 0.25 µg/mL | 0.632
B. subtilis 168 [1], first compound 0.0078 µg/mL, partner 0.5 µg/mL | 0.118
B. subtilis 168 [1], first compound 0.0156 µg/mL, partner 0.125 µg/mL | 0.835
B. subtilis 168 [1], first compound 0.0156 µg/mL, partner 0.25 µg/mL | 0.624
B. subtilis 168 [1], first compound 0.0156 µg/mL, partner 0.5 µg/mL | 0.385
B. subtilis 168 [1], first compound 0.0625 µg/mL, partner 0.0625 µg/mL | 0.696
B. subtilis 168 [1], first compound 0.125 µg/mL, partner 0.0625 µg/mL | 0.497
B. subtilis 168 [1], first compound 0.25 µg/mL, partner 0.0625 µg/mL | 0.387
S. aureus DSM 20231 [3], first compound 0.0312 µg/mL, partner 1 µg/mL | 0.0507
S. aureus DSM 20231 [3], first compound 0.0625 µg/mL, partner 1 µg/mL | 0.0324
S. aureus DSM 20231 [3], first compound 0.125 µg/mL, partner 1 µg/mL | 0.0362

Settings | fitness
B. subtilis 168 [1], first compound 0.0625 µg/mL, partner 0.125 µg/mL | 0.605
B. subtilis 168 [1], first compound 0.0625 µg/mL, partner 0.25 µg/mL | 0.0905
B. subtilis 168 [1], first compound 0.0625 µg/mL, partner 0.5 µg/mL | 0.0427
B. subtilis 168 [1], first compound 0.125 µg/mL, partner 0.125 µg/mL | 0.502
B. subtilis 168 [1], first compound 0.125 µg/mL, partner 0.25 µg/mL | 0.0971
B. subtilis 168 [1], first compound 0.125 µg/mL, partner 0.5 µg/mL | 0.0448
B. subtilis 168 [1], first compound 0.25 µg/mL, partner 0.125 µg/mL | 0.397
B. subtilis 168 [1], first compound 0.25 µg/mL, partner 0.25 µg/mL | 0.104
B. subtilis 168 [1], first compound 0.25 µg/mL, partner 0.5 µg/mL | 0.0468
S. aureus DSM 20231 [3], first compound 0.0312 µg/mL, partner 0.5 µg/mL | 0.143
S. aureus DSM 20231 [3], first compound 0.0625 µg/mL, partner 0.25 µg/mL | 0.13
S. aureus DSM 20231 [3], first compound 0.0625 µg/mL, partner 0.5 µg/mL | 0.0789
S. aureus DSM 20231 [3], first compound 0.125 µg/mL, partner 0.125 µg/mL | 0.0394
S. aureus DSM 20231 [3], first compound 0.125 µg/mL, partner 0.25 µg/mL | 0.0405
S. aureus DSM 20231 [3], first compound 0.125 µg/mL, partner 0.5 µg/mL | 0.0486
S. pneumoniae D39V [2], first compound 0.0125 µg/mL, partner 0.2 µg/mL | 0.624
S. pneumoniae D39V [2], first compound 0.0125 µg/mL, partner 0.4 µg/mL | 0.45
S. pneumoniae D39V [2], first compound 0.0125 µg/mL, partner 0.8 µg/mL | 0.264
S. pneumoniae D39V [2], first compound 0.015 µg/mL, partner 0.105 µg/mL | 0.81
S. pneumoniae D39V [2], first compound 0.015 µg/mL, partner 0.21 µg/mL | 0.748
S. pneumoniae D39V [2], first compound 0.015 µg/mL, partner 0.42 µg/mL | 0.627
S. pneumoniae D39V [2], first compound 0.025 µg/mL, partner 0.2 µg/mL | 0.412
S. pneumoniae D39V [2], first compound 0.025 µg/mL, partner 0.4 µg/mL | 0.345
S. pneumoniae D39V [2], first compound 0.025 µg/mL, partner 0.8 µg/mL | 0.237
S. pneumoniae D39V [2], first compound 0.03 µg/mL, partner 0.105 µg/mL | 0.707
S. pneumoniae D39V [2], first compound 0.03 µg/mL, partner 0.21 µg/mL | 0.683
S. pneumoniae D39V [2], first compound 0.03 µg/mL, partner 0.42 µg/mL | 0.539
S. pneumoniae D39V [2], first compound 0.05 µg/mL, partner 0.2 µg/mL | 0.176
S. pneumoniae D39V [2], first compound 0.05 µg/mL, partner 0.4 µg/mL | 0.148
S. pneumoniae D39V [2], first compound 0.05 µg/mL, partner 0.8 µg/mL | 0.112
S. pneumoniae D39V [2], first compound 0.06 µg/mL, partner 0.105 µg/mL | 0.579
S. pneumoniae D39V [2], first compound 0.06 µg/mL, partner 0.21 µg/mL | 0.544
S. pneumoniae D39V [2], first compound 0.06 µg/mL, partner 0.42 µg/mL | 0.277

Settings | Bliss interaction score
B. subtilis 168 [4] | 0.215
S. aureus DSM 20231 [6] | 0.027
S. aureus Newman | -0.0929
S. pneumoniae D39V [5] | 0.132

CCC[C@@H]1C[C@@H](C(=O)N[C@@H]([C@H]2O[C@H](SC)[C@H](O)[C@@H](O)[C@H]2O)[C@H](C)Cl)N(C)C1 [Clindamycin] + CCC[C@@H]1C[C@@H](C(=O)N[C@@H]([C@H]2O[C@H](SC)[C@H](O)[C@@H](O)[C@H]2O)[C@@H](C)O)N(C)C1 [Lincomycin]
fitness, B. subtilis 168 [1], one replicate
Settings | first compound 0.0039 µg/mL | first compound 0.0078 µg/mL | first compound 0.0156 µg/mL
partner 0.4 µg/mL | 0.964 | 0.838 | 0.828
partner 0.8 µg/mL | 0.965 | 0.803 | 0.83
partner 1.6 µg/mL | 0.94 | 0.817 | 0.81

Settings | fitness
B. subtilis 168 [1], first compound 0.0625 µg/mL, partner 0.1 µg/mL | 0.659
B. subtilis 168 [1], first compound 0.0625 µg/mL, partner 0.2 µg/mL | 0.613
B. subtilis 168 [1], first compound 0.0625 µg/mL, partner 0.4 µg/mL | 0.675
B. subtilis 168 [1], first compound 0.125 µg/mL, partner 0.1 µg/mL | 0.454
B. subtilis 168 [1], first compound 0.125 µg/mL, partner 0.2 µg/mL | 0.406
B. subtilis 168 [1], first compound 0.25 µg/mL, partner 0.1 µg/mL | 0.363
B. subtilis 168 [1], first compound 0.25 µg/mL, partner 0.2 µg/mL | 0.355
B. subtilis 168 [1], first compound 0.25 µg/mL, partner 0.4 µg/mL | 0.356
S. aureus DSM 20231 [3], first compound 0.0312 µg/mL, partner 0.2 µg/mL | 0.265
S. aureus DSM 20231 [3], first compound 0.0312 µg/mL, partner 0.4 µg/mL | 0.137
S. aureus DSM 20231 [3], first compound 0.0625 µg/mL, partner 0.1 µg/mL | 0.16
S. aureus DSM 20231 [3], first compound 0.0625 µg/mL, partner 0.2 µg/mL | 0.112
S. aureus DSM 20231 [3], first compound 0.0625 µg/mL, partner 0.4 µg/mL | 0.083
S. aureus DSM 20231 [3], first compound 0.125 µg/mL, partner 0.1 µg/mL | 0.0376
S. aureus DSM 20231 [3], first compound 0.125 µg/mL, partner 0.2 µg/mL | 0.0455
S. aureus DSM 20231 [3], first compound 0.125 µg/mL, partner 0.4 µg/mL | 0.0541
S. pneumoniae D39V [2], first compound 0.0125 µg/mL, partner 0.2 µg/mL | 0.496
S. pneumoniae D39V [2], first compound 0.0125 µg/mL, partner 0.4 µg/mL | 0.351
S. pneumoniae D39V [2], first compound 0.0125 µg/mL, partner 0.8 µg/mL | 0.0708
S. pneumoniae D39V [2], first compound 0.015 µg/mL, partner 0.215 µg/mL | 0.831
S. pneumoniae D39V [2], first compound 0.015 µg/mL, partner 0.43 µg/mL | 0.741
S. pneumoniae D39V [2], first compound 0.015 µg/mL, partner 0.86 µg/mL | 0.482
S. pneumoniae D39V [2], first compound 0.025 µg/mL, partner 0.2 µg/mL | 0.356
S. pneumoniae D39V [2], first compound 0.025 µg/mL, partner 0.4 µg/mL | 0.243
S. pneumoniae D39V [2], first compound 0.025 µg/mL, partner 0.8 µg/mL | 0.0559
S. pneumoniae D39V [2], first compound 0.03 µg/mL, partner 0.215 µg/mL | 0.772
S. pneumoniae D39V [2], first compound 0.03 µg/mL, partner 0.43 µg/mL | 0.739
S. pneumoniae D39V [2], first compound 0.03 µg/mL, partner 0.86 µg/mL | 0.394
S. pneumoniae D39V [2], first compound 0.05 µg/mL, partner 0.2 µg/mL | 0.0687
S. pneumoniae D39V [2], first compound 0.05 µg/mL, partner 0.4 µg/mL | 0.0516
S. pneumoniae D39V [2], first compound 0.05 µg/mL, partner 0.8 µg/mL | 0.0164
S. pneumoniae D39V [2], first compound 0.06 µg/mL, partner 0.215 µg/mL | 0.632
S. pneumoniae D39V [2], first compound 0.06 µg/mL, partner 0.43 µg/mL | 0.524
S. pneumoniae D39V [2], first compound 0.06 µg/mL, partner 0.86 µg/mL | 0.152

Settings | Bliss interaction score
B. subtilis 168 [4] | 0.193
S. aureus DSM 20231 [6] | -0.0523
S. aureus Newman | -0.22
S. pneumoniae D39V [5] | 0.0748

CCC[C@@H]1C[C@@H](C(=O)N[C@@H]([C@H]2O[C@H](SC)[C@H](O)[C@@H](O)[C@H]2O)[C@H](C)Cl)N(C)C1 [Clindamycin] + COc1cc(Cc2cnc(N)nc2N)cc(OC)c1OC [Trimethoprim]
fitness, B. subtilis 168 [1], one replicate
Settings | partner 0.1 µg/mL | partner 0.125 µg/mL | partner 0.2 µg/mL | partner 0.25 µg/mL | partner 0.4 µg/mL | partner 0.5 µg/mL | partner 1 µg/mL | partner 2 µg/mL
first compound 0.0039 µg/mL | – | 0.663 | – | 0.563 | – | 0.518 | – | –
first compound 0.0078 µg/mL | – | 0.603 | – | 0.511 | – | 0.481 | – | –
first compound 0.0156 µg/mL | – | 0.596 | – | 0.54 | – | 0.531 | – | –
first compound 0.0625 µg/mL | 0.461 | 0.38 | 0.271 | – | 0.174 | – | 0.041 | 0.0649
first compound 0.125 µg/mL | 0.256 | 0.179 | 0.172 | – | 0.0828 | – | 0.031 | 0.0548
first compound 0.25 µg/mL | 0.126 | 0.0411 | 0.0757 | – | 0.0475 | – | 0.0278 | 0.0626

fitness
Settings | first compound 0.0312 µg/mL | first compound 0.0625 µg/mL | first compound 0.125 µg/mL | first compound 0.25 µg/mL
B. subtilis 168 [1], partner 0.25 µg/mL | – | 0.352 | 0.233 | 0.083
B. subtilis 168 [1], partner 0.5 µg/mL | – | 0.222 | 0.101 | 0.0589
S. aureus DSM 20231 [3], partner 0.125 µg/mL | 0.268 | 0.0676 | 0.0245 | –
S. aureus DSM 20231 [3], partner 0.25 µg/mL | – | 0.125 | 0.0812 | –
S. aureus DSM 20231 [3], partner 0.5 µg/mL | – | 0.0734 | 0.0599 | –
S. aureus DSM 20231 [3], partner 1 µg/mL | 0.124 | 0.0694 | 0.0452 | –

Settings | Bliss interaction score
B. subtilis 168 [4] | -0.144
S. aureus DSM 20231 [6] | 0.0511
S. aureus Newman | 0.196
S. pneumoniae D39V [5] | 0.0411
